Results on four compounds are retold here after EP0414903A1, “NEW THIOPROLINE DERIVATIVE” (priority 1988, dated 1990).

Non-standard residues stand in square brackets, D forms with d. Residues, ends and D or L forms follow the SMILES beside them. *: point of attachment. Thz = O=C(O)[C@@H]1CSCN1; Cbz = O=C(OCc1ccccc1)*

Experiment [1] deals with scopolamine-induced amnesia. The experiment is described as follows: Step-down passive avoidance test (anti-amnestic activity, scopolamine-induced amnesia). Format: in vivo, rats. The settings on record: scopolamine 0.5 mg/kg i.p., relative to scopolamine-treated group, retention trial 24 hours after acquisition. The source says:
A step-down passive avoidance test on rats was used as the method of assay for anti-amnestic activity to estimate the preventive effect of prolylendopeptidase inhibitors on scopolamine-induced amnesia. This method of assay involved application of electric shocks to animals upon their stepping down on a grid floor to see whether they have learned that such shocks can be avoided by staying on a platform. A passive avoidance test chamber used in this experiment was comprised of an electrifiable grid floor (20 cm in length and 22 cm in width) and a platform (20 cm in length, 15 cm in width and 5 cm in height) placed at the right back corner thereof.
5-Weeks-old male rats of Wister strain weighing 100-150 g (purchased from Japan Clea Laboratory) were used in the test.
Each test compound used in the doses indicated in Tables 1 - 4 was dissolved or suspended in 4% gum arabic-containing distilled water (1.0 ml) and administered p.o. one hour before the commencement of acquisition trial. In addition, scopolamine hydrobromide dissolved in saline (0.5 ml) was intraperitoneally administered in a dose of 0.5 mg/kg 30 minutes before the acquisition trial to prepare experimental animal models of amnesia.
In the acquisition trial, the rat was placed on the platform in the test chamber and, when the animal stepped down on the grid floor, the electric current of 5.0 mA was immediately sent to the grid floor continuously until the animal went up on the platform. If the rat having gone up on the platform stayed there for more than 30 seconds, the animal was regarded to have learned the situation and taken out of the test chamber. A total time of measurement in the acquisition trial was limited to 300 seconds as maximum, and the time elapsing until the rat learned the situation was measured. In order to avoid any significant difference in the rats, those which took more than 300 seconds for the learning were excluded from the experiment.
The retention trial was carried out 24 hours after the acquisition trial. In this trial, the rat was placed again on the platform in the test chamber, the time elapsing until the animal stepped down onto the grid floor (the step-down latency) was measured.
In each of these tables they are indicated as relative step-down latency, shown by each test compound-treated group in the retention trial, to step-down latency for scopolamine-treated group (i.e. test compound-treated group's step-down latency/scopolamine-treated group's step-down latency).

The target of experiment [2] is T1, bovine brain PEP (Bos taurus, UniProt Q9XTA2).
T1 construct: from tissue; host or cells: bovine brain
T1 sequence (Q9XTA2 1-710): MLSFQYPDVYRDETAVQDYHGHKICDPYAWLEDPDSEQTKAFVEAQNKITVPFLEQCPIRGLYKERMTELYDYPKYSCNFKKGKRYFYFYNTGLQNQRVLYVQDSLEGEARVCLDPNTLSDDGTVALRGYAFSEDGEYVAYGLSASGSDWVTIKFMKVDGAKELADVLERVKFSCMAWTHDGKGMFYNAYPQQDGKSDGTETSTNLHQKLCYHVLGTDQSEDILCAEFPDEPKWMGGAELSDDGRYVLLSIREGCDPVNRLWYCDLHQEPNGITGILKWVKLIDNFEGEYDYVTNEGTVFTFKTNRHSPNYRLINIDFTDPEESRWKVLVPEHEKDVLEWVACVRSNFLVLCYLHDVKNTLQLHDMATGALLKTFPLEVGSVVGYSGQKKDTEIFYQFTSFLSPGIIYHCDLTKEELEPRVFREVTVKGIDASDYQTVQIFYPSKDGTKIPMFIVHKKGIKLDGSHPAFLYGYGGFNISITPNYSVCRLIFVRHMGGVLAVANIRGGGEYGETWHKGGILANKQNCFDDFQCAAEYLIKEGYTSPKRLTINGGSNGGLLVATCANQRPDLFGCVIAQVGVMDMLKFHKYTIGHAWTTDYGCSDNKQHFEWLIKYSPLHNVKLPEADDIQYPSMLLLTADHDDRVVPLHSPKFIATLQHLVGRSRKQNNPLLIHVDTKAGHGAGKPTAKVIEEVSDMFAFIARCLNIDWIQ
The experiment is described as follows: Inhibitory activity against proline endopeptidase (PEP), substrate Z-Gly-Pro-β-NA. In kind it is biochemical. The settings on record: pH 7.0, 37°C. The procedure: The thioproline derivatives of the general formula (I) shown above as test compound were assayed for inhibitory activity against bovine brain PEP by the following test procedure using as substrate N-benzyloxycarbonyl-glycyl-proline-β-naphthylamide (Z-Gly-Pro-β-NA).
100 µl of PEP (about 0.14 U/ml) and 100µl of one of test compound solutions adjusted to different concentrations (0, 10⁻⁹ - 10⁻⁴M) were added to 0.7 ml of 20 mM Tris-HCl buffer (pH = 7.0) containing 10 mM EDTA and 10 mM 2-mercaptoethanol, and the mixture was preincubated at 37°C for 5 minutes. […] The reaction was […] using 25% trichloroacetic acid, and the reaction mixture was centrifuged at 3,000 r.p.m. for 10 minutes. To 0.5 ml of the supernatent was added 0.5 ml of 0.1% nitrous acid, and after 3 minutes 0.05% solution of N-(l-naphthyl)etnylenediamine dihydrochloride in ethanol was added thereto. The mixture was allowed to stand at 37°C for 25 minutes and then the absorbance at 570 nm was measured.
Enzyme Activity Unit = ΔOD x 0.42 x Dilution ratio (µmol/min/ml)

`COC(OC)[C@@H]1CSCN1C(=O)[C@@H]1CSCN1C(=O)OCc1ccccc1` [Example 1, Benzyloxycarbonyl-L-thioprolyl-L-thioprolinal dimethyl acetal]: the “Relative step-down latency in retention trial (mean±S.E.)” value (from here on “Relative step-down latency”) in experiment [1] (Table 2, dose 0.008 mg/kg p.o.) was found to be 0.9±0.1; in experiment [1] (Table 2, dose 0.04 mg/kg p.o.), 2.4±1.1; in experiment [1] (Table 2, dose 0.2 mg/kg p.o.), 2.5±1.5; in experiment [1] (Table 2, dose 1 mg/kg p.o.), 1.4±0.3; in experiment [1] (Table 2, dose 5 mg/kg p.o.), 1.1±0.4; in experiment [1] (Table 2, dose 25 mg/kg p.o.), 1.6±0.6. In addition, in experiment [2], it took 10 µM to reach half-maximal inhibition (IC50).
In the case of `CCOC(OCC)[C@@H]1CSCN1C(=O)[C@@H]1CSCN1C(=O)OCc1ccccc1` [Example 2, Benzyloxycarbonyl-L-thioprolyl-L-thioprolinal diethyl acetal], the “Relative step-down latency” value in experiment [1] (Table 2, dose 0.008 mg/kg p.o.) amounted to 1.5±0.6; in experiment [1] (Table 2, dose 0.04 mg/kg p.o.), 2.7±1.4; in experiment [1] (Table 2, dose 0.2 mg/kg p.o.) it was 1.7±0.9; in experiment [1] (Table 2, dose 1 mg/kg p.o.), 2.3±1.2; in experiment [1] (Table 2, dose 5 mg/kg p.o.), 1.5±0.6; in experiment [1] (Table 2, dose 25 mg/kg p.o.), 1.3±0.7. Further, the midpoint of inhibition in experiment [2], the IC50, lay at 250 µM.
As for `O=C[C@@H]1CSCN1C(=O)[C@@H]1CSCN1C(=O)OCc1ccccc1` [ZTT, Benzyloxycarbonyl-L-thioprolyl-L-thioprolinal, reference compound] (Cbz-[Thz]-[Thz]-aldehyde), the “Relative step-down latency” value worked out at 1.0±0.3 in experiment [1] (Table 2, dose 0.008 mg/kg p.o.); 3.0±1.2 in experiment [1] (Table 2, dose 0.04 mg/kg p.o.); 2.6±0.9 in experiment [1] (Table 2, dose 0.2 mg/kg p.o.); 1.6±0.8 in experiment [1] (Table 2, dose 1 mg/kg p.o.); 1.0±0.2 in experiment [1] (Table 2, dose 5 mg/kg p.o.); 1.4±0.9 in experiment [1] (Table 2, dose 25 mg/kg p.o.).
As to `COc1ccc(C(=O)N2CCCC2=O)cc1` [aniracetam, reference compound], the “Relative step-down latency” value is 1.1±0.4 in experiment [1] (Table 3, dose 12.5 mg/kg p.o.); 1.6±0.6 in experiment [1] (Table 3, dose 25 mg/kg p.o.); 2.3±0.6 in experiment [1] (Table 3, dose 50 mg/kg p.o.); 0.7±0.3 in experiment [1] (Table 3, dose 100 mg/kg p.o.).

The IC50 is the point on the concentration scale where inhibition reaches its midpoint. A higher IC50 goes with lower potency.
